Measured values reported in US20100267712A1, “ISOINDOLINE COMPOUNDS FOR THE TREATMENT OF SPINAL MUSCULAR ATROPHY AND OTHER USES” (The United States of America, as represented by the …, priority 2007, published 2010).

Tested on: SMN2-linked luciferase-reporter gene construct
Assay: SMN Splice Reporter Assay (SMN2-linked luciferase reporter)
Assay type: cell-based
Settings: for EC50: cervical carcinoma cell lines, SMN2 splice luciferase reporter; for Fold Increase: fold-increase of luciferase over baseline reading of transformed cells without any test compound
Summary of the method: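 Cervical carcinoma cells carrying an SMN2-luciferase splicing reporter, in-frame only with exon 7 inclusion, were treated with compound. Luciferase activity reported as fold increase over untreated transformed cells, with EC50 derived.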

EC50	SMILES	Fold Increase
660 nM	CCCCc1ccc2c(c1)C(=O)N(c1ccc3c(c1)cc(C)n3C)C2 [Example 123331]	1.31
207 nM	COc1ccc2c(c1)C(=O)N(c1ccc3nc(N(C)C)ccc3c1)C2 [Example 123332]	1.272
20 nM	COc1ccc2c(c1)C(=O)N(c1ccc3nc(OC)ccc3c1)C2 [Example 123333]	1.376
359 nM	Cc1cc2cc(N3Cc4ccc(CC(C)C)cc4C3=O)ccc2n1C [Example 123439]	1.357
78 nM	COc1ccc2c(c1)C(=O)N(c1ccc3nccc(C)c3c1)C2 [Example 123589]	1.541
128 nM	COc1ccc2c(c1)C(=O)N(c1ccc3sc(C)c(C)c3c1)C2 [Example 123590]	1.405
47 nM	COc1ccc2c(c1)C(=O)N(c1ccc3ccc(Cl)nc3c1)C2 [Example 123710]	1.327
1580 nM	COc1ccc2c(c1)C(=O)N(c1ccc3c(Cl)ccnc3c1)C2 [Example 123711]	1.262
147 nM	COc1ccc2c(c1)C(=O)N(c1ccc3c(OC)ccnc3c1)C2 [Example 123712]	1.38
145 nM	CCCOc1ccc2c(c1)C(=O)N(c1ccc3c(c1)cc(C)n3C)C2 [Example 123715]	1.216
784 nM	COc1ccc2c(c1)C(=O)N(c1ccc3ccc(OC)nc3c1)C2 [Example 123936]	1.429
225 nM	O=C1c2cc(Br)ccc2CN1c1ccc2ncccc2c1 [Example 124033]	1.795
440 nM	CC(=O)Nc1ccc2c(c1)C(=O)N(c1ccc3c(c1)cc(C)n3C)C2 [Example 124034]	1.494
1640 nM	COc1cc2c(cc1OC)C(=O)N(c1ccc3c(c1)cc(C)n3C)C2 [Example 124036]	1.34
5970 nM	COc1ccc2c(c1)C(=O)N(c1ccc3c(N(C)C)ccnc3c1)C2 [Example 124037]	1.377
26 nM	COc1ccc2c(c1)C(=O)N(c1ccc3c(C)ccnc3c1)C2 [Example 124038]	1.509
520 nM	Cn1ccc2ccc(N3Cc4ccc(O)cc4C3=O)cc21 [Example 124039]	1.893
69 nM	CCOc1ccc2c(c1)C(=O)N(c1ccc3ccn(C)c3c1)C2 [Example 124167]	1.759
152 nM	CCc1ccc2c(c1)C(=O)N(c1ccc3ccn(C)c3c1)C2 [Example 124169]	1.673
145 nM	CCCOc1ccc2c(c1)C(=O)N(c1ccc3ccn(C)c3c1)C2 [Example 124325]	1.69
560 nM	CCc1cc2cc(N3Cc4ccc(OC)cc4C3=O)ccc2n1C [Example 124327]	1.361
151 nM	CCCc1ccc2c(c1)C(=O)N(c1ccc3ccn(C)c3c1)C2 [Example 124428]	1.692
46 nM	COc1ccc2c(c1)C(=O)N(c1ccc3ccc(C)nc3c1)C2 [Example 124430]	1.411
96 nM	Cn1ccc2ccc(N3Cc4ccc(N5CCCCC5)cc4C3=O)cc21 [Example 124650]	1.684
116 nM	COc1ccc2c(c1)C(=O)N(c1ccc3c(c1)cc1n3CCC1)C2 [Example 124651]	1.452
24 nM	O=C1c2cc(N3CCCC3)ccc2CN1c1ccc2ncccc2c1 [Example 124770]	1.948
327 nM	COc1ccc2c(c1)C(=O)N(c1ccc3cc4n(c3c1)CCC4)C2 [Example 124774]	1.369

Further lines, the molecule ahead of its results:

SMILES	EC50	Fold Increase
Cn1ccc2cc(N3Cc4ccc(OC(F)(F)Br)cc4C3=O)ccc21 [Example 122431]	220 nM	1.552
COc1ccc2c(c1)C(=O)N(c1ccc3nc(OC)ncc3c1)C2 [Example 122432]	1140 nM	1.32
Cn1ccc2ccc(N3Cc4ccc(-c5cncnc5)cc4C3=O)cc21 [Example 122433]	1070 nM	1.333
COc1ccc2c(c1)C(=O)N(c1ccc3scc(Br)c3c1)C2 [Example 122434]	378 nM	1.718
COc1ccc2c(c1)C(=O)N(c1ccc3c(c1)N(C)CCN3C)C2 [Example 122436]	5950 nM	1.354
CCCOc1ccc2c(c1)C(=O)N(c1ccc3sccc3c1)C2 [Example 122551]	–	1.235
CCCCOc1ccc2c(c1)C(=O)N(c1ccc3sccc3c1)C2 [Example 122552]	–	1.202
CC(C)Oc1ccc2c(c1)C(=O)N(c1ccc3sccc3c1)C2 [Example 122553]	–	1.082
CCOc1ccc2c(c1)C(=O)N(c1ccc3sccc3c1)C2 [Example 122554]	27 nM	1.475
Cc1ccc2c(c1)C(=O)N(c1ccc3ccsc3c1)C2 [Example 122555]	87 nM	1.509
O=C1c2cc(O)ccc2CN1c1ccc2ccsc2c1 [Example 122556]	139 nM	1.671
O=C1c2cc(Br)ccc2CN1c1ccc2ccsc2c1 [Example 122557]	–	1.383
O=C1c2cc(Br)ccc2CN1c1ccc2sccc2c1 [Example 122558]	94 nM	1.469
CCc1ccc2c(c1)C(=O)N(c1ccc3ccsc3c1)C2 [Example 122683]	125 nM	1.582
CCc1ccc2c(c1)C(=O)N(c1ccc3sccc3c1)C2 [Example 122684]	57 nM	1.665
CCCc1ccc2c(c1)C(=O)N(c1ccc3sccc3c1)C2 [Example 122819]	35 nM	1.547
COc1ccc2c(c1)C(=O)N(c1ccc3nccc(N(C)C)c3c1)C2 [Example 122820]	–	1.066
COc1ccc2c(c1)C(=O)N(c1ccc3cccnc3c1)C2 [Example 122821]	37 nM	1.401
Cc1cc2cc(N3Cc4ccc(O)cc4C3=O)ccc2n1C [Example 123010]	302 nM	1.336
COc1ccc2c(c1)C(=O)N(c1ccc3scc(C)c3c1)C2 [Example 123012]	272 nM	1.773
COc1ccc2c(c1)C(=O)N(c1ccc3nccc(Cl)c3c1)C2 [Example 123013]	902 nM	1.413
CCCc1ccc2c(c1)C(=O)N(c1ccc3c(c1)cc(C)n3C)C2 [Example 123014]	323 nM	1.407
Cc1ccc2c(c1)C(=O)N(c1ccc3c(c1)cc(C)n3C)C2 [Example 123015]	53 nM	1.43
CCc1ccc2c(c1)C(=O)N(c1ccc3c(c1)cc(C)n3C)C2 [Example 123016]	197 nM	1.481

SMILES	EC50	Fold Increase
Cc1cc2cc(N3Cc4ccc(OC(F)F)cc4C3=O)ccc2n1C [Example 123204]	374 nM	1.361
COc1ccc2c(c1)C(=O)N(c1ccc3nccc(OC)c3c1)C2 [Example 123205]	–	1.227
COc1ccc2c(c1)C(=O)N(c1ccc3nc(Cl)ccc3c1)C2 [Example 123206]	119 nM	1.531
CCOc1ccc2c(c1)C(=O)N(c1ccc3c(c1)cc(C)n3C)C2 [Example 123328]	444 nM	1.316
CCC(C)c1ccc2c(c1)C(=O)N(c1ccc3c(c1)cc(C)n3C)C2 (stereo not shown) [Example 123329]	569 nM	1.327
Cn1ccc2cc(N3Cc4ccc(N5CCOCC5)cc4C3=O)ccc21 [Example 123587]	–	1.256
CN1CCN(c2ccc3c(c2)C(=O)N(c2ccc4c(ccn4C)c2)C3)CC1 [Example 123588]	–	1.183
COc1ccc2c(c1)C(=O)N(c1ccc3c(N(C)C)ccnc3c1)C2 [Example 123713]	–	1.072
COc1ccc2c(c1)C(=O)N(c1ccc3c(c1)cc(C(=O)N1CCCC1)n3C)C2 [Example 123935]	–	1.124
COc1ccc2c(c1)C(=O)N(c1ccc3ccc(N(C)C)nc3c1)C2 [Example 123937]	–	1.202
Cc1cc2cc(N3Cc4ccc(OC5CCCC5)cc4C3=O)ccc2n1C [Example 123938]	–	1.2
CCOC1CS(=O)(=O)c2cc(N3Cc4ccc(OC)cc4C3=O)ccc21 (stereo not shown) [Example 124031]	–	1.106
CCCCOc1ccc2c(c1)C(=O)N(c1ccc3c(c1)cc(C)n3C)C2 [Example 124035]	–	1.118
Cc1cc2cc(N3Cc4ccc(S(C)(=O)=O)cc4C3=O)ccc2n1C [Example 124166]	–	1.227
Cn1ccc2ccc(N3Cc4ccc(S(C)(=O)=O)cc4C3=O)cc21 [Example 124168]	–	1.462
COc1ccc2c(c1)C(=O)N(c1ccc3ccc(O)nc3c1)C2 [Example 124170]	–	1.102
COCc1cc2cc(N3Cc4ccc(OC)cc4C3=O)ccc2n1C [Example 124328]	–	1.305
Cn1ccc2ccc(N3Cc4ccc(N5CCOCC5)cc4C3=O)cc21 [Example 124539]	–	1.652
CN1CCN(c2ccc3c(c2)C(=O)N(c2ccc4ccn(C)c4c2)C3)CC1 [Example 124649]	–	1.119
COc1ccc2c(c1)C(=O)N(c1ccc3c(c1)cc(CN(C)C)n3C)C2 [Example 124772]	–	1.148
COc1ccc2c(c1)C(=O)N(c1ccc3c(c1)cc(C(C)C)n3C)C2 [Example 124773]	–	1.255
Cn1ccc2ccc(N3Cc4ccc(NC(=O)c5ccccc5)cc4C3=O)cc21 [Example 124775]	–	1.216
CC(C)C(=O)Nc1ccc2c(c1)C(=O)N(c1ccc3ccn(C)c3c1)C2 [Example 124776]	–	2.069
